Data: patent US20190142860A1, “NUCLEIC ACID BASED TIA-1 INHIBITORS” (Aquinnah Pharmaceuticals, Inc., priority 2015, published 2019)
“Also recorded” adds a separate entry of the source. Residues, ends and D or L forms follow the SMILES beside them. *: point of attachment. Cbz = O=C(OCc1ccccc1)*

Key:
[1] = tested on: tau-induced TIA1+ SGs in HT22 cells; assay: PKR / PERK inhibitors on tau-mediated SG formation; format: cell-based, mouse; details: TIA1 ± WT tau, 24 hrs, C16 1 μM, GSK2606414 50 nM
Protocol: The eukaryotic translation initiation factor eIF2α is regulated by phosphorylation. […] SGs were induced by transfection with TIA1±WT tau. After 24 hrs the cells were treated with inhibitors of PKR (C16, 1 μM, Sigma) or PERK (GSK2606414, 50 nM, EMD/Millipore), and then SG number was quantified after 24 hrs.

[2] = tested on: tau; assay: Tau levels with TIA1 over-expression under proteasome or autophagy inhibition, immunoblot in HT22 cells; format: cell-based, mouse; details: overnight, MG132 5 μM, chloroquine 50 μM
Protocol: Immunoblots were preformed using gradient PAGE on a 15-well 4-12% Bis-Tris gel (Invitrogen). Blocking was done in 5% milk for lhr at RT. Primary antibody incubation was at 4° C. overnight with 1:7,500 mouse monoclonal Tau13, 1:500 mouse monoclonal PHF1, 1:500 goat polyclonal TIA1 (Santa Cruz), 1:500 mouse monoclonal synaptophysin (Santa Cruz), 1:1,000 mouse monoclonal PSD-95 (NeuroMab), 1:1,000 rabbit polyclonal caspase-3 or cleaved caspase 3 (Cell Signaling), or 1:10,000 mouse monoclonal actin (Millipore) in PBS. Secondary antibody was incubated in 5% milk for 1 hr at RT. Developing was done using SuperSignal West Pico Substrate (Thermo).

[3] = tested on: granules positive for TIA1 and phospho-tau (P-S396/404, PHF1); assay: Tau kinase inhibitor study: TIA1+ SGs and PHF1+ tau granules; format: cell-based, mouse; details: HT22 cells, TIA1 and WT tau, 24 hrs; for formation of granules positive for TIA1 and phospho-tau (SGs and tau granules): XXVI 20 μM, CDK2/5 inhibitor 5 μM, SB203580 20 μM, 39621 20 μM, PP2 20 nM
[4] = tested on: stress granules (SGs) in HT22 cells; assay: Stress granule / tau granule formation in HT22 cells expressing tau and TIA1; format: cell-based, mouse; details: for formation of tau granules: neuronal cell lines
Protocol: HT22 cells were transfected using Lipofectamine (Invitrogen), incubated 24 hours, and treated after 24 hrs (25 uM salubrinal, 5 μg/ml puromycin, 10 μg/ml cycloheximide). At 48 hours the cells were fixed in 4% PFA.
HT22 cells were maintained in DMEM (4.5 g glucose/L) media supplemented with 10% fetal bovine serum, lx PenStrep (Invitrogen), lx L-Glutamine (Invitrogen), and 1× non-essential amino acids. Cells were passaged twice a week 1:5. Cells were seeded on 18 mm poly-D-lysine coated coverslips in 12-well plates (75,000/coverslip) one day prior to transfection in […] media (DMEM, 10% FBS). Cells were transfected at 1:2 ratio DNA:Lipofectamine (Invitrogen), delivering 2 μg total DNA per well. Lipofectamine in OptiMEM (Invitrogen) is incubated for 5 min prior to the addition of the DNA/OptiMEM. The transfection mixture is then allowed to incubate for 20 min at room temperature prior to being added to the cells. 500 μL of media is removed and 500 μL of transfection mixture is added dropwise to each well. Cells were incubated 24 hours, after which the addition of 25 μM salubrinal may be added to half of the plates and allowed to incubate for 24 hours. At 48 hours post-transfection, the cells were fixed in 4% PFA and stored in PBS.
Granule count cells: SG density was quantified using Image J software by calculating the number of puncta […] per 63× frame controlled for the number of cells. This was done by thresholding images, and using the analyze particle functionality. Quantifications of granule counts and area in primary neurons was done in ImageJ by using a free-hand tool to outline the neuron, thresholding the image, creating a mask over the nucleus, and using the particle analyzer tool.

[5] = tested on: tau granules in primary hippocampal neurons; assay: Tau granules in dendrites of primary tau−/− hippocampal neurons; format: cell-based, mouse; details: WT or P301L tau ± TIA1, treated at DIV21, cycloheximide 10 μg/ml
Protocol: Primary hippocampal cultures were generated from P0 pups from C57Bl/6 WT, TIA1 −/−, or tau −/− mice. The hippocampus was dissected out in Hank's Balanced Salt Solution buffered with HEPES and PenStrep, and dissociated with 0.125% trypsin for 15 min at 37° C., followed by trituration. Dissociated cells were plated on plates of coverslips pre-coated with Poly-D lysine (100 μg/mL, Sigma). Neurons were grown for 21 days in Neurobasal medium supplemented with B-27 (Invitrogen)
At DIV3 neurons were transduced with AAV9-TIA1-mRFP or AAV9-mRFP virus (MOI 20). At DIV7 neurons were transduced with AAV1-WT tau-V5 or AAV1-P301L tau-V5 virus (MOI 20). Neurons were fixed for immunolabeling and confocal microscopy in 4% PFA, or lysed in via sonication in PBS with protease and phosphatase inhibitors.
Granule count neurons: Quantifications of granule counts and area in primary neurons was done in ImageJ by using a free-hand tool to outline the neuron, thresholding the image, creating a mask over the nucleus, and using the particle analyzer tool.

[6] = tested on: primary hippocampal neurons; assay: Dendrite length of primary hippocampal neurons (MAP2, NeuronJ); format: cell-based, mouse; details: Tau−/− and TIA1−/− neurons, WT or P301L tau ± TIA1, DIV21; puromycin 5 μg/ml, cycloheximide 10 μg/ml
Text: SG density and dendritic processes were quantified using Image J (using ImageJ plug-ins NeuronJ, tracing MAP2 positive processes for dendritic measurements). Granule movement and formation was quantified using Bitplane Imaris Track software (Imaris).
Measurements of dendritic processes were done using ImageJ plug-ins NeuronJ. Using the software to trace MAP2 positive processes of individual cells yields a pixel measurement that can then be back calculated to micrometers using the microscope scaling parameters.

[7] = tested on: caspase-3; assay: Caspase cleavage (Caspase-Glo 3/7) in neurons co-transduced with TIA1 and tau; format: cell-based, mouse; details: salubrinal 25 μM
Protocol: Caspase 3/7 cleavage was quantified with the Caspase-Glo 3/7 Assay kit, Promega. Apoptosis detected DNA fragmentation (TiterTACS Colorimetric Apoptosis Detection kit, Trevigen).
Caspase 3/7 cleavage was quantified with the Caspase-Glo 3/7 Assay kit, Promega. Apoptosis was analyzed by quantifying DNA fragmentation (TiterTACS Colorimetric Apoptosis Detection kit, Trevigen).

[8] = target: microtubules (mouse brain); assay: microtubule pelleting in RAB buffer / immunoblot, mouse cortex

Compound: O=C1Nc2ccc3ncsc3c2/C1=C/c1cnc[nH]1 [C16]
- tau-mediated SG formation (SG number) [1]: strongly inhibited; also recorded: Inhibition

Compound: Cn1cc(-c2ccc3c(c2)CCN3C(=O)Cc2cccc(C(F)(F)F)c2)c2c(N)ncnc21 [GSK2606414]
- tau-mediated SG formation (SG number) [1]: strongly inhibited; also recorded: Inhibition

Compound: CC(C)C[C@@H](C=O)NC(=O)[C@H](CC(C)C)NC(=O)[C@H](CC(C)C)NC(=O)OCc1ccccc1 [MG132] (Cbz-Leu-Leu-Leu-aldehyde)
- decreases in tau associated with TIA1 over-expression [2]: neither MG132 nor chloroquine prevented decreases in tau

Compound: C[S+]([O-])c1ccc(-c2nc(-c3ccncc3)c(-c3ccc(F)cc3)[nH]2)cc1 (stereo not shown) [SB203580]
- SG inhibition, comparison among the kinase inhibitors [3]: strongest SG inhibition
- formation of granules positive for TIA1 and phospho-tau (SGs and tau granules) [3]: Inhibition

Compound: Cn1cc(-c2[nH][nH]c(=O)c2-c2cn(C)c3ccccc23)c2ccccc21 [XXVI]
- formation of granules positive for TIA1 and phospho-tau (SGs and tau granules) [3]: inhibition of SGs and tau granules

Compound: CCN(CC)CCCC(C)Nc1ccnc2cc(Cl)ccc12 (stereo not shown) [chloroquine]
- decreases in tau associated with TIA1 over-expression [2]: neither MG132 nor chloroquine prevented decreases in tau

Compound: C[C@@H]1C[C@@H]([C@H](O)CC2CC(=O)NC(=O)C2)C(=O)[C@@H](C)C1 [cycloheximide]
- formation of tau/SG complexes (tau+ SGs) ([4]; HT22 cells over-expressing TIA1 and WT or P301L tau, arsenite, cycloheximide 10 μg/ml): prevented formation of the tau/SG complexes; also recorded: reversed
- formation of tau granules [4]: prevented formation of tau granules
- tau granules in dendritic processes (Tau13, MAP2 imaging) [5]: spread diffusely with only small, less defined granules apparent
- dendrite length [6]: did not affect dendrite length

Compound: COc1ccc(C[C@H](N)C(=O)N[C@H]2[C@@H](O)[C@H](n3cnc4c(N(C)C)ncnc43)O[C@@H]2CO)cc1 [puromycin]
- formation of tau granules [4]: stimulated formation of tau granules
- tau granules in dendritic processes (Tau13, MAP2 imaging) [5]: larger and more abundant tau granules
- dendrite length [6]: potentiated the decrease in dendritic length

Compound: O=C(/C=C/c1ccccc1)NC(NC(=S)Nc1cccc2cccnc12)C(Cl)(Cl)Cl (stereo not shown) [salubrinal]
- SG levels ([4]; HT22 cells expressing tau, salubrinal 25 uM): enhanced SG levels
- number of SGs ([4]; HT22 cells, P301L, P301L PMIM or P301L PNULL tau ± TIA1-RFP, salubrinal 25 μM): increased the number of SGs in all conditions
- levels of cleaved caspase-3 (caspase cleavage) [7]: potentiated

Compound: alkylbenzyldimethyammonium chloride
- formation of granules positive for TIA1 and phospho-tau (SGs and tau granules) [3]: inhibition of SGs and tau granules

Compound: human 1N4R tau with the P301S mutation (PS19 transgene) (from UniProt P10636 2-412)
- fold increase in the ratio of MT-bound (P) to unbound (S) tau, P301S TIA1+/- against P301S TIA1+/+ [8]: 3 fold
